Source: paper PMC9780888, “4-Isobutylmethcathinone—A Novel Synthetic Cathinone with High In Vitro Cytotoxicity and Strong Receptor Binding Preference of Enantiomers” (Pharmaceuticals, 2022)

Experiments:
Type in all cases: cell-based
dopamine receptor DAR1 = biological target: T1, dopamine receptor DAR1 (Homo sapiens, UniProt P21728); assay: PRESTO-Tango β-arrestin 2 recruitment assay, DAR1; details: HTLA cells
T1 construct: host or cells: HTLA (HEK 293-derived)
From the text: However, binding to a specific receptor/transporter and, thus, the mechanism of action of a given cathinone always depends on the specific structure of the evaluated compound [37]. In this study, the binding activity of IBMcat and its enantiomers was verified by PRESTO-Tango (parallel receptor expression and screening via transcriptional output, with transcriptional activation following arrestin-2 translocation) assay using the HTLA cell line stably producing β-arrestin-2 in a fusion with TEV and luciferase production driven by tTA. […] The transcription factor then translocates to the cell nucleus, in which it triggers the transcription of the target gene for luciferase production which can be determined by the light emitted from luciferin conversion to oxyluciferin. Here, the pronounced luminescence was recorded for all DAR1-4 types in HTLA cells treated with IBMCat and its enantiomers (Figure 8). […]
(§1) The transfected HTLA cells were incubated for 24 h, and then 1 × 10^4 cells were seeded per well of a white 96-well clear bottom plate (Brand, Germany) in 40 μL of DMEM with 1% charcoal-stripped FBS (Thermo Fisher Scientific, USA). […] After 5 min., the luminescence was measured using a multi-mode microplate reader SpectraMax iD5 (Molecular Devices, San Jose, CA, USA) measuring the entire wavelength spectrum. All samples were measured in quadruplicates. […]

[1] = biological target: T2, ADRB1 (beta-1 adrenergic receptor) (Homo sapiens, UniProt P08588); assay: PRESTO-Tango β-arrestin 2 recruitment assay, ADRB1; details: ADRB1, 500 nM
T2 construct: Tango construct (TEV cleavage site and tTA, as described for the dopamine receptor plasmids); host or cells: HTLA (HEK 293-derived)
Procedure: (§2) The HTLA cell line was used for the PRESTO-Tango β-arrestin recruitment assay. The HTLA cells were provided as a gift from the laboratory of Bryan Roth (Roth Lab, USA). It is a human cell line derived from human embryonic kidney cells (HEK 293) stably expressing β-arrestin in a fusion with the tobacco etch virus protease (TEV) protease and the luciferase gene under the control of the transcription factor tetracycline transcriptional activator (tTA). The HTLA cells were cultured under standard incubation conditions (37 °C, 5% CO2, 95% humidity) in DMEM with 10% FBS. […]
as §1, with “quadruplicates. The data were evaluated by Prism 7 software (GraphPad, […], CA, USA).” for “quadruplicates.”
(§3) The error bar represents standard deviation from four replicates. The data were processed and evaluated by GraphPad Prism Software using one-way ANOVA: * p<0.05; ** p<0.01; *** […]

[2] = biological target: T3, ADRA2B (alpha-2B adrenergic receptor) (Homo sapiens, UniProt P18089); assay: PRESTO-Tango β-arrestin 2 recruitment assay, ADRA2B; details: 500 nM
T3 construct: Tango construct (TEV cleavage site and tTA, as described for the dopamine receptor plasmids); host or cells: HTLA (HEK 293-derived)
Procedure: as §2
as §1, with “quadruplicates. The data were evaluated by Prism 7 software (GraphPad, […], CA, USA).” for “quadruplicates.”
as §3

T1 sequence (P21728 whole entry): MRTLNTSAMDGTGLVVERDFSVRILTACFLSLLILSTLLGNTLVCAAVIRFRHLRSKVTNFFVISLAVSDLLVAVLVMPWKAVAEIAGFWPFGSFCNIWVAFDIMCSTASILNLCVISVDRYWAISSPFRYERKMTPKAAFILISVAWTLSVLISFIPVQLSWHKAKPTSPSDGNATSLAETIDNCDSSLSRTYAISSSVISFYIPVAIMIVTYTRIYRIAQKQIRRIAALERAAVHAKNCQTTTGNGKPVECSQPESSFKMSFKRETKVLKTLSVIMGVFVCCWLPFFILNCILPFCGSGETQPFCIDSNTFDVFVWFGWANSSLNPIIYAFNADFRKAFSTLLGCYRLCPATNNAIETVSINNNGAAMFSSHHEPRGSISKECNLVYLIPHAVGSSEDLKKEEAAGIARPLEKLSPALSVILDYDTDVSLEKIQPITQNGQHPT
T2 sequence (P08588 whole entry): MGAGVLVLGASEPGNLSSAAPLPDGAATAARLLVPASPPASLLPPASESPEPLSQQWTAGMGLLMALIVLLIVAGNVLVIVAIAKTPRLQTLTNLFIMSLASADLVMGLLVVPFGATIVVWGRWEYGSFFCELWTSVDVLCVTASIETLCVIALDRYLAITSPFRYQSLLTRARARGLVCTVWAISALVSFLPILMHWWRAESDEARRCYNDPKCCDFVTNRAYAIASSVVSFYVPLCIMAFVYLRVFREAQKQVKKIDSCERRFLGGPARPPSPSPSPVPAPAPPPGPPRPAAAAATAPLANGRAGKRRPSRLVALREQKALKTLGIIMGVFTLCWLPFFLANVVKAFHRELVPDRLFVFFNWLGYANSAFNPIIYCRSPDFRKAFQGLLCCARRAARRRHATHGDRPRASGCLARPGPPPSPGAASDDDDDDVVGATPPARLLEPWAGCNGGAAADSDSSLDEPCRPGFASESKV
T3 sequence (P18089 whole entry): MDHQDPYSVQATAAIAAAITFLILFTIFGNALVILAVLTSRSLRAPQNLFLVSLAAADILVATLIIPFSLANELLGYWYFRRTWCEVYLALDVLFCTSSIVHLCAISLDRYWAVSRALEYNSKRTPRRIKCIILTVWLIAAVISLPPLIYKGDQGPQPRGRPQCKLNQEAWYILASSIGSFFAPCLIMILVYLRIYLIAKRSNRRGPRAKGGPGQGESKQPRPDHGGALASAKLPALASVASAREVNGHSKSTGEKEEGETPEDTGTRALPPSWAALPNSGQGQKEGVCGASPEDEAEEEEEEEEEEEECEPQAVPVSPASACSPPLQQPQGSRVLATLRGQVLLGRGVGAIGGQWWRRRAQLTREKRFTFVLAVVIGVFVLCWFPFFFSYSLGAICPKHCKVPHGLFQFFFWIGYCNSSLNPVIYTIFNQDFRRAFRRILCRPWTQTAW

CNC(C)C(=O)c1ccc(CC(C)C)cc1.Cl (stereo not shown) [IBMcat, 4-isobutylmethcathinone hydrochloride]
effect on DAR1 (increase in RLU with increasing concentration) (dopamine receptor DAR1; 0-500 nM): acted as agonists | concentration from which no further increase in RLU was detected (maximum effective concentration) (dopamine receptor DAR1; DAR1): 10 nM | increase in the luminescence signal [1]: 3 fold | increase in RLU compared to untreated control [2]: 1.5 fold
